# Data as given in ChEMBL document CHEMBL3045835, “Comparative study of conventional and microwave-assisted synthesis of some Schiff bases and their potential as antimicrobial agents” (2012).
# Tests used:
# Assay type in all cases: functional
# [1] = test system: Penicillium chrysogenum; assay: Antifungal activity against Penicillium chrysogenum MTCC 161 at 500 ug/ml after 18 hr by cup-plate method; details: MTCC 161, 18 h, read-out: DIZ
# [2] = test system: Penicillium chrysogenum; assay: Antifungal activity against Penicillium chrysogenum MTCC 161 after 24 hr by broth dilution method; details: MTCC 161, 24 h
# [3] = test system: Bacillus pumilus; assay: Antibacterial activity against Bacillus pumilus MTCC 1456 at 100 ug/ml after 18 hr by cup-plate method; details: MTCC 1456, 18 h, read-out: DIZ
# [4] = test system: Penicillium chrysogenum; assay: Antifungal activity against Penicillium chrysogenum MTCC 161 at 200 ug/ml after 18 hr by cup-plate method; details: MTCC 161, 18 h, read-out: DIZ
# [5] = test system: Bacillus pumilus; assay: Antibacterial activity against Bacillus pumilus MTCC 1456 at 200 ug/ml after 18 hr by cup-plate method; details: MTCC 1456, 18 h, read-out: DIZ
# [6] = test system: Bacillus subtilis; assay: Antibacterial activity against Bacillus subtilis MTCC 441 after 24 hr by broth dilution method; details: MTCC 441, 24 h
# [7] = test system: Pseudomonas fluorescens; assay: Antibacterial activity against Pseudomonas fluorescens MTCC 2421 at 500 ug/ml after 18 hr by cup-plate method; details: MTCC 2421, 18 h, read-out: DIZ
# [8] = test system: Pseudomonas aeruginosa; assay: Antibacterial activity against Pseudomonas aeruginosa MTCC 424 at 200 ug/ml after 18 hr by cup-plate method; details: MTCC 424, 18 h, read-out: DIZ
# [9] = test system: Escherichia coli; assay: Antibacterial activity against Escherichia coli MTCC 1573 at 1500 ug/ml after 18 hr by cup-plate method; details: MTCC 1573, 18 h, read-out: DIZ
# [10] = test system: Staphylococcus aureus; assay: Antibacterial activity against Staphylococcus aureus MTCC 1430 at 100 ug/ml after 18 hr by cup-plate method; details: MTCC 1430, 18 h, read-out: DIZ
# [11] = test system: Aspergillus niger; assay: Antifungal activity against Aspergillus niger MTCC 2546 at 1500 ug/ml after 18 hr by cup-plate method; details: MTCC 2546, 18 h, read-out: DIZ
# [12] = test system: Penicillium chrysogenum; assay: Antifungal activity against Penicillium chrysogenum MTCC 161 at 1500 ug/ml after 18 hr by cup-plate method; details: MTCC 161, 18 h, read-out: DIZ
# [13] = test system: Bacillus subtilis; assay: Antibacterial activity against Bacillus subtilis MTCC 441 at 1000 ug/ml after 18 hr by cup plate method; details: MTCC 441, 18 h, read-out: DIZ
# [14] = test system: Bacillus subtilis; assay: Antibacterial activity against Bacillus subtilis MTCC 441 at 500 ug/ml after 18 hr by cup plate method; details: MTCC 441, 18 h, read-out: DIZ
# [15] = test system: Micrococcus luteus; assay: Antibacterial activity against Micrococcus luteus MTCC 1538 at 100 ug/ml after 18 hr by cup-plate method; details: MTCC 1538, 18 h, read-out: DIZ
# [16] = test system: Penicillium chrysogenum; assay: Antifungal activity against Penicillium chrysogenum MTCC 161 at 100 ug/ml after 18 hr by cup-plate method; details: MTCC 161, 18 h, read-out: DIZ
# [17] = test system: Pseudomonas fluorescens; assay: Antibacterial activity against Pseudomonas fluorescens MTCC 2421 after 24 hr by broth dilution method; details: MTCC 2421, 24 h
# [18] = test system: Staphylococcus aureus; assay: Antibacterial activity against Staphylococcus aureus MTCC 1430 at 200 ug/ml after 18 hr by cup-plate method; details: MTCC 1430, 18 h, read-out: DIZ
# [19] = test system: Escherichia coli; assay: Antibacterial activity against Escherichia coli MTCC 1573 at 200 ug/ml after 18 hr by cup-plate method; details: MTCC 1573, 18 h, read-out: DIZ
# [20] = test system: Bacillus subtilis; assay: Antibacterial activity against Bacillus subtilis MTCC 441 at 100 ug/ml after 18 hr by cup plate method; details: MTCC 441, 18 h, read-out: DIZ
# [21] = test system: Pseudomonas fluorescens; assay: Antibacterial activity against Pseudomonas fluorescens MTCC 2421 at 1000 ug/ml after 18 hr by cup-plate method; details: MTCC 2421, 18 h, read-out: DIZ
# [22] = test system: Pseudomonas fluorescens; assay: Antibacterial activity against Pseudomonas fluorescens MTCC 2421 at 1500 ug/ml after 18 hr by cup-plate method; details: MTCC 2421, 18 h, read-out: DIZ
# [23] = test system: Bacillus subtilis; assay: Antibacterial activity against Bacillus subtilis MTCC 441 at 1500 ug/ml after 18 hr by cup plate method; details: MTCC 441, 18 h, read-out: DIZ
# [24] = test system: Staphylococcus aureus; assay: Antibacterial activity against Staphylococcus aureus MTCC 1430 at 1500 ug/ml after 18 hr by cup-plate method; details: MTCC 1430, 18 h, read-out: DIZ
# [25] = test system: Pseudomonas aeruginosa; assay: Antibacterial activity against Pseudomonas aeruginosa MTCC 424 at 1000 ug/ml after 18 hr by cup-plate method; details: MTCC 424, 18 h, read-out: DIZ
# [26] = test system: Micrococcus luteus; assay: Antibacterial activity against Micrococcus luteus MTCC 1538 after 24 hr by broth dilution method; details: MTCC 1538, 24 h
# [27] = test system: Aspergillus niger; assay: Antifungal activity against Aspergillus niger MTCC 2546 at 1000 ug/ml after 18 hr by cup-plate method; details: MTCC 2546, 18 h, read-out: DIZ
smiles,measurement,setting,value
Clc1ccc(/N=C/c2cccs2)cc1,zone of inhibition at 500 µg/mL,[1],16 mm
same,MIC,[2],300 µg/mL
same,zone of inhibition at 100 µg/mL,[3],13 mm
same,zone of inhibition at 200 µg/mL,[4],14 mm
same,zone of inhibition at 200 µg/mL,[5],15 mm
same,MIC,[6],400 µg/mL
same,zone of inhibition at 500 µg/mL,[7],16 mm
same,zone of inhibition at 200 µg/mL,[8],13 mm
same,zone of inhibition at 1500 µg/mL,[9],20 mm
same,zone of inhibition at 100 µg/mL,[10],12 mm
same,zone of inhibition at 1500 µg/mL,[11],18 mm
same,zone of inhibition at 1500 µg/mL,[12],19 mm
same,zone of inhibition at 1000 µg/mL,[13],18 mm
same,zone of inhibition at 500 µg/mL,[14],14 mm
same,zone of inhibition at 100 µg/mL,[15],11 mm
same,zone of inhibition at 100 µg/mL,[16],13 mm
same,MIC,[17],300 µg/mL
same,zone of inhibition at 200 µg/mL,[18],13 mm
same,zone of inhibition at 200 µg/mL,[19],15 mm
same,zone of inhibition at 100 µg/mL,[20],11 mm
same,zone of inhibition at 1000 µg/mL,[21],18 mm
same,zone of inhibition at 1500 µg/mL,[22],20 mm
same,zone of inhibition at 1500 µg/mL,[23],21 mm
same,zone of inhibition at 1500 µg/mL,[24],18 mm
same,zone of inhibition at 1000 µg/mL,[25],17 mm
same,MIC,[26],400 µg/mL
same,zone of inhibition at 1000 µg/mL,[27],17 mm
